Experimental data published in patent US20240092799A1, “MNK INHIBITORS” (Hepagene Therapeutics (HK) Limited, priority 2020, published 2024).

Target: MNK2 (Homo sapiens (Human), UniProt Q9HBH9)
Test: MNK Biochemical Enzymatic Assay (ADP-Glo), MNK2 binding assay
Experimental: MNK Biochemical Enzymatic Assay. This protocol establishes the binding assays for MNK1 and MNK2 using ADP-Glo assay. MNK phosphorylates the substrate and converts ATP to ADP, which was detected by Envision and used to reflect the reminding activity of MNK. Reagents and equipment used in the assay are listed below, followed by the protocol.
• a) Add 50 μL compound to 384-well dilution plate • b) Dilute compound 1:3 in succession in DMSO for each column for 10+0 pts (refer to dilution plate map) • c) Transfer 0.1 μL diluted compound solution in each row to 384 assay plate using Echo, each column containing 2 replicates (refer to assay plate map) • d) Add 5 μL enzyme working solution to 384-well assay plate, centrifuge 1000 RPM for 1 min • e) Incubate at 25° C. for 15 min • f) Add 5 μL substrate working solution to initiate reaction • g) Incubate at 25° C. for 60 min • h) Add 10 μL ADP Glo reagent, centrifuge 1000 RPM for 1 min • i) Incubate at 25° C. for 60 min • j) Add 20 μL kinase detection reagent, centrifuge 1000 RPM for 1 min • k) Incubate at 25° C. for 60 min • l) Read on Envision for US LUM as RLU • m) Data analysis: IC50s were determined based on a non-linear regression analysis of data collected.

Chain of MNK2 (Q9HBH9 whole entry): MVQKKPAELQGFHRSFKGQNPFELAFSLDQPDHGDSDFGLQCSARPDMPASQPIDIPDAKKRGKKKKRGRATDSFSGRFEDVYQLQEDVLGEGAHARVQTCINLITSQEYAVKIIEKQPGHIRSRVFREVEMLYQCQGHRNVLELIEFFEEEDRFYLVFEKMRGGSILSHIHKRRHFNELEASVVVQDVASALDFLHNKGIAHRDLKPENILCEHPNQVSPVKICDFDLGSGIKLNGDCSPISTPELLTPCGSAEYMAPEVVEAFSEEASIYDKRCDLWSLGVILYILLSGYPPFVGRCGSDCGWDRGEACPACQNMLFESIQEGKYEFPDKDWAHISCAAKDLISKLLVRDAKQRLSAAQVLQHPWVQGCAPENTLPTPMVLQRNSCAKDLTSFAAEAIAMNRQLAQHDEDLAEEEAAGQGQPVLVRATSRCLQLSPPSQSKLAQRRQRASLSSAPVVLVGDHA

| SMILES | IC50 |
| --- | --- |
| Cc1cc(Nc2ncnc3[nH]cnc23)[n+]([O-])c2c1C(=O)NC21CCCCC1 [Compound XXIX-O, 2′-((9H-purin-6-yl)amino)-4′-methyl-5′-oxo-5′,6′-dihydrospiro[cyclohexane-1,7′-pyrrolo[3,4-b]pyridine] 1′-oxide] | 10 to 100 nM |
| Nc1ncnc(Nc2cc3c(s2)C(=O)NC32CCCCC2)c1Cl [Compound XX, 2′-((6-Amino-5-chloropyrimidin-4-yl)amino)spiro[cyclohexane-1,4′-thieno[2,3-c]pyrrol]-6′(5′H)-one] | 10 to 100 nM |
| O=C1NC2(CCCCC2)c2cc(Nc3ncnc4cccnc34)sc21 [Compound XXX, 2′-(pyrido[3,2-d]pyrimidin-4-ylamino)spiro[cyclohexane-1,4′-thieno[2,3-c]pyrrol]-6′(5′H)-one] | 10 to 100 nM |
| O=C1NC2(CCCCC2)c2cc(Nc3cc(NC4CCNC4)ncn3)sc21 (stereo not drawn) [Compound XXIII-R, 2′-((6-(pyrrolidin-3-ylamino)pyrimidin-4-yl)amino)spiro[cyclohexane-1,4′-thieno[2,3-c]pyrrol]-6′(5′H)-one] | 100 to 1000 nM |
| O=C1NC2(CCCCC2)c2nc(Nc3ccnc(Nc4ccccn4)c3)sc21 [Compound XXVIII-J, 2′-((2-(pyridin-2-ylamino)pyridin-4-yl)amino)spiro[cyclohexane-1,4′-pyrrolo[3,4-d]thiazol]-6′(5′H)-one] | 10 to 100 nM |
| COC(=O)C1(Nc2cc(Nc3cc(C)c4c([n+]3[O-])C3(CCCCC3)NC4=O)ncn2)CCOC1 (stereo not drawn) [Compound XXIX-AAG, 2′-((6-((3-(methoxycarbonyl)tetrahydrofuran-3-yl)amino)pyrimidin-4-yl)amino)-4′-methyl-5′-oxo-5′,6′-dihydrospiro[cyclohexane-1,7′-pyrrolo[3,4-b]pyridine] 1′-oxide] | 100 to 1000 nM |
| O=C1NC2(CCCCC2)c2cc(Nc3ncnc4sc5c(c34)CCC(C(=O)N3CCC3)C5)sc21 (stereo not drawn) [Compound XXV-D, 2′-((7-(azetidine-1-carbonyl)-5,6,7,8-tetrahydrobenzo[4,5]thieno[2,3-d]pyrimidin-4-yl)amino)spiro[cyclohexane-1,4′-thieno[2,3-c]pyrrol]-6′(5′H)-one] | 10 to 100 nM |
| O=C1NC2(CCCCC2)c2cc(Nc3ncnc4sc5c(c34)CCCC5)sc21 [Compound XXIII-F, 2′-((5,6,7,8-Tetrahydrobenzo[4,5]thieno[2,3-d]pyrimidin-4-yl)amino)spiro [cyclohexane-1,4′-thieno[2,3-c]pyrrol]-6′(5′H)-one] | 10 to 100 nM |
| O=C1NC2(CCCCC2)c2cc(Nc3cc(NC4CCOCC4)ncn3)sc21 [Compound XXIV-D, 2′-((6-((tetrahydro-2H-pyran-4-yl)amino)pyrimidin-4-yl)amino)spiro[cyclohexane-1,4′-thieno[2,3-c]pyrrol]-6′(5′H)-one] | 100 to 1000 nM |
| CSc1ncc2c(-c3cc4c(s3)C(=O)NC43CCCCC3)n[nH]c2n1 [Compound XIX, 2′-(6-(Methylthio)-1H-pyrazolo[3,4-d]pyrimidin-3-yl)spiro[cyclohexane-1,4′-thieno[2,3-c]pyrrol]-6′(5′H)-one] | 100 to 1000 nM |
| CN1CCN(c2cc(Nc3cc4c(s3)C(=O)NC43CCCCC3)ncn2)CC1 [Compound XXIII-M, 2′-((6-(4-Methylpiperazin-1-yl)pyrimidin-4-yl)amino)spiro[cyclohexane-1,4′-thieno[2,3-c]pyrrol]-6′(5′H)-one] | > 1000 nM |
| O=C1NC2(CCCCC2)c2cc(Nc3cc(NC(=O)C4CCNC4)ncn3)sc21 (stereo not drawn) [Compound XXIII-V, N-(6-((6′-oxo-5′,6′-dihydrospiro[cyclohexane-1,4′-thieno[2,3-c]pyrrol]-2′-yl)amino)pyrimidin-4-yl)pyrrolidine-3-carboxamide] | 10 to 100 nM |
| O=C1NC2(CCCCC2)c2cc(Nc3cc(NC(=O)C4CC4)ncn3)sc21 [Compound XX-A, N-(6-((6′-Oxo-5′,6′-dihydrospiro[cyclohexane-1,4′-thieno[2,3-c]pyrrol]-2′-yl)amino)pyrimidin-4-yl)cyclopropanecarboxamide] | 10 to 100 nM |
| Cc1cc(Nc2ncnc3[nH]ccc23)[n+]([O-])c2c1C(=O)NC21CCCCC1 [Compound XXIX-F, 2′-((7H-pyrrolo[2,3-d]pyrimidin-4-yl)amino)-4′-methyl-5′-oxo-5′,6′-dihydrospiro[cyclohexane-1,7′-pyrrolo[3,4-b]pyridine] 1′-oxide] | 0.1 to 10 nM |
| COCCNc1cc(Nc2cc(C)c3c([n+]2[O-])C2(CCCCC2)NC3=O)ncn1 [Compound XXIX-B, 2′-((6-((2-methoxyethyl)amino)pyrimidin-4-yl)amino)-4′-methyl-5′-oxo-5′,6′-dihydrospiro[cyclohexane-1,7′-pyrrolo[3,4-b]pyridine] 1′-oxide] | 10 to 100 nM |
| O=C1NC2(CCCCC2)c2cc(Nc3cc(N4CCCC4)ncn3)sc21 [Compound XXIII-H, 2′-((6-(Pyrrolidin-1-yl)pyrimidin-4-yl)amino)spiro[cyclohexane-1,4′-thieno[2,3-c]pyrrol]-6′(5′H)-one] | > 1000 nM |
| Cc1cc(Nc2cc(NCC3CCOC3)ncn2)[n+]([O-])c2c1C(=O)NC21CCCCC1 (stereo not drawn) [Compound XXIX-AV, 4′-methyl-5′-oxo-2′-((6-(((tetrahydrofuran-3-yl)methyl)amino)pyrimidin-4-yl)amino)-5′,6′-dihydrospiro[cyclohexane-1,7′-pyrrolo[3,4-b]pyridine] 1′-oxide] | 10 to 100 nM |
| Cc1cc(Nc2cc(NC3CNC3)ncn2)[n+]([O-])c2c1C(=O)NC21CCCCC1 [Compound XXIX-Q, 2′-((6-(azetidin-3-ylamino)pyrimidin-4-yl)amino)-4′-methyl-5′-oxo-5′,6′-dihydrospiro[cyclohexane-1,7′-pyrrolo[3,4-b]pyridine] 1′-oxide] | 10 to 100 nM |
| O=C1NC2(CCCCC2)c2cc(Nc3cc(Nc4cccnc4)ncn3)sc21 [Compound XXIII-Z] | 10 to 100 nM |
| O=C1NC2(CCCCC2)c2cc(Nc3ncnc(NC(=O)C4CC4)c3Cl)sc21 [Compound XX-7, N-(5-Chloro-6-((6′-oxo-5′,6′-dihydrospiro[cyclohexane-1,4′-thieno[2,3-c]pyrrol]-2′-yl)amino)pyrimidin-4-yl)cyclopropanecarboxamide] | 100 to 1000 nM |
| Cc1cc(Nc2cc(N[C@H]3CCNC3)ncn2)[n+]([O-])c2c1C(=O)NC21CCCCC1 [Compound XXIX-S, (S)-4′-methyl-5′-oxo-2′-((6-(pyrrolidin-3-ylamino)pyrimidin-4-yl)amino)-5′,6′-dihydrospiro[cyclohexane-1,7′-pyrrolo[3,4-b]pyridine] 1′-oxide] | 10 to 100 nM |
| Nc1cc(Nc2sc3c(c2Cl)C2(CCCCC2)NC3=O)ncn1 [Compound XXI, 2′-((6-Aminopyrimidin-4-yl)amino)-3′-chlorospiro[cyclohexane-1,4′-thieno[2,3-c]pyrrol]-6′(5′H)-one] | 100 to 1000 nM |
| Cc1cc(Nc2cc(NC(=O)c3ccccn3)ncn2)[n+]([O-])c2c1C(=O)NC21CCCCC1 [Compound XXIX-AAF, 4′-methyl-5′-oxo-2′-((6-(picolinamido)pyrimidin-4-yl)amino)-5′,6′-dihydrospiro[cyclohexane-1,7′-pyrrolo[3,4-b]pyridine] 1′-oxide] | 10 to 100 nM |
| COc1c(Nc2nc3c(s2)C(=O)NC32CCCCC2)ncnc1N[C@H]1CCOC1 [Compound XXVIII-F, (S)-2′-((5-methoxy-6-((tetrahydrofuran-3-yl)amino)pyrimidin-4-yl)amino)spiro[cyclohexane-1,4′-pyrrolo[3,4-d]thiazol]-6′(5′H)-one] | > 1000 nM |
